Data from PMC5762338, “A novel orally available Syk/Src/Jak2 inhibitor, SKLB-850, showed potent anti-tumor activities in B cell lymphoma (BCL) models” (Oncotarget, 2017).

Columns and labels:
[1] = tested on: HBL-1 cells; experiment: Apoptosis assay, AnnexinV-FITC/propidium iodide FCM; format: cell-based, Human; details: HBL-1, treatment for 18 hours (legend: 24 hours)
Method: Figure 1 The chemical structure of SKLB-850 and its anti-tumor effects in vitro (A) The chemical structure of SKLB-850. (B and C) Apoptosis of Ramos cells induced by SKLB-850. Cells were treated by vehicle, R788 or indicated concentrations of compounds. […]
The ability of SKLB-850 to induce apoptosis of BCL cells was analyzed by FCM. […]
Flow cytometry (FCM) assays were performed to investigate the apoptosis of Ramos and HBL-1 cells induced by SKLB-850. […] Cell apoptosis was analyzed with a flow cytometer (BD FACSCalibur, BD, USA).

[2] = tested on: LY-10; experiment: MTT anti-viability assay; format: cell-based; details: LY10, LY-10, Human diffuse large B cell lymphoma, 72 hours
Method: In vitro anti-viability activities of SKLB-850 against various tumor cell lines were measured using the MTT method.
Human cancer cell lines Ramos-ZHL, HBL-1, SuDHL-6, LY-10, LY-1, RAJI, MDA-MB-231, SW1990, SMMC7721, MCF-7, CFPAC-1, HPAC, A549 and H358 were obtained from American Type Culture Collection (ATCC). All tumor cell lines were maintained according to the ATCC procedures and passaged for less than 6 months after receipt for resuscitation. These cells were cultured in RPMI-1640 supplemented with 10% fetal bovine serum (FBS).
Cell proliferation was measured using the MTT assay as previously described. Various cells including were treated with indicated concentrations of SKLB-850 for 72 hours. R788 (Selleck.cn) was served as a positive control. Each assay was replicated 3 times.

[3] = tested on: CD184 expression of Ramos cells; experiment: CD184 (CXCR4) surface expression by flow cytometry; format: cell-based, Human
Method: And BCL cells could migrate toward the chemokine CXCL12 upon activation of its receptor CD184 [27].
The expression of surface molecules was analyzed by flow cytometry, using the following monoclonal antibody CD184 (CXCR4), and the relevant isotype controls mAbs (BD biosciences). A total of 10^6 mononuclear cells were incubated for 30 minutes at 4°C with saturating concentrations of mAbs, and the cells were washed twice and analyzed with a flow cytometer (BD FACSCalibur, BD, USA).

[4] = tested on: Syk, Src/FAK, JAK2/STAT3 and NF-κB p65 phosphorylation in Ramos tumor tissues; experiment: Immunohistochemistry of phospho-proteins in tumor tissues from the Ramos tumor model; format: in vivo, NOD/SCID mice
Method: To understand the mechanism of antitumor activities in vivo, pivotal protein activities of Syk/ERK, Src/FAK and JAK2/STAT3 signaling pathways were detected by Western blot analysis. […] Immunohistochemistry assays were performed using tumor tissues isolated from the Ramos tumor model at the end of treatment.
Paraffin sections from each group were stained with hematoxylineosin (H&E). For immunohistochemistry studies, tumor tissues in the Ramos model were performed and the following antibodies were used: phospho-Src (Cell Signaling Technology, 1:100), phospho-FAK (Cell Signaling Technology, 1:100), phospho-Stat3 (Cell Signaling Technology, 1:100), NF-κB p-65(Cell Signaling Technology, 1:100) and phospho-Syk (Cell Signaling Technology, 1:100). Additionally, Rat anti-mouse CD31 antibody (BD Biosciences, USA) and anti-Ki67 antibody (Gene Tech) were used to determine vessel density and cell proliferation following the manufacturer’s protocol, respectively. A DAKO polymer secondary antibody system (Dako Envision 1K4007) was used for secondary detection. Images were captured using an Olympus digital camera.

Structure (SMILES) | percentages of apoptotic cells (in words) [1] | IC50 [2] | expression of CD184 (in words) [3] | phosphorylation of NF-κB p65 (in words) ([4]; tumor tissues from the Ramos tumor model) | phosphorylations of Syk, Src/FAK and JAK2/STAT3 (in words) ([4]; tumor tissues from the Ramos tumor model at the end of treatment)
COc1cc(Nc2ncc(F)c(Nc3ccc4c(n3)N(COP(=O)(O)O)C(=O)C(C)(C)O4)n2)cc(OC)c1OC [R788, reference compound] | induced apoptosis but obviously much weaker |  |  |  | 
CN1CCN(c2ccc(Nc3ncc(F)c(Nc4ccc(Cl)cc4C(N)=O)n3)cc2)CC1 [SKLB-850, 5-chloro-2-((5-fluoro-2-((4-(4-methylpiperazin-1-yl)phenyl)amino)pyrimidin-4-yl)amino) benzamide] | dose-dependently increased | 900 nM | decreased the expression of CD184 | inhibited | inhibited
